Data reported in patent US20190030023A1, “METHODS FOR TREATING CANCER” (X4 Pharmaceuticals, Inc., priority 2016, published 2019).
In brackets after ≈: the same amount, converted by molar mass.

How the values were obtained:
[1] = test system: unresectable or metastatic melanoma; details: Phase 3 trial, P<0.001 pembrolizumab vs ipilimumab; cited from earlier work
[2] = Solubility of X4P-001 by pH and in water; assay type: physicochemical; details: for solubility: aqueous buffer
[3] = Phase 1 and 2a trials; suggests high tissue penetrance; cited from earlier work
[4] = test system: circulating white blood cells (WBCs); details: Phase 1 and 2a trials, oral administration; cited from earlier work
in vivo = details: terminal half-life
Experimental: In certain embodiments, the dosage composition may be provided twice a day in divided dosage, approximately 12 hours apart. In other embodiments, the dosage composition may be provided once daily. […] Dosage for oral administration may be from about 100 mg to about 1200 mg once or twice per day.

[5] = test system: murine models of melanoma, renal cell carcinoma, and ovarian cancer; details: cited from earlier work
[6] = test system: pancreatic adenocarcinoma; details: cited from earlier work

**Q.** With “Pembrolizumab: humanized IgG4 kappa monoclonal antibody that blocks the interaction between PD-1 and its ligands, PD-L1 and PD-L2” as the molecule, how does the objective response rate [1] read?
**A.** 33%

**Q.** With NCCCCN(Cc1nc2ccccc2[nH]1)[C@H]1CCCc2cccnc21 [X4P-001] as the molecule, how does the solubility ([2]; pH 9.0 (sparingly soluble)) read?
**A.** 10.7 mg/mL (≈ 30.6 mM)

**Q.** And the solubility ([2]; pH 10.0 (slightly soluble))?
**A.** 2 mg/mL (≈ 5.72 mM)

**Q.** What about the solubility ([2]; pH range 3.0 to 8.0 (freely soluble)) of the same molecule?
**A.** > 100 mg/mL

**Q.** What about the solubility in water ([2]; water) of the same molecule?
**A.** only slightly soluble

**Q.** What about the “volume of distribution (VL)” value [3] of the same molecule?
**A.** high

**Q.** And the “pharmacodynamic activity: changes in circulating white blood cells (WBCs)” value [4]?
**A.** dose- and concentration-related changes

**Q.** And the half-life (in vivo; approximate value)?
**A.** ~14.5 h

**Q.** And the half-life (in vivo; range)?
**A.** 12 to 24 h

**Q.** What about the “anti-tumor activity, including decreased metastasis and increased overall survival” value [5] of the same molecule?
**A.** significant anti-tumor activity

**Q.** Which objective response rate [1] does the source give for ipilimumab: anti-CTLA-4 antibody here?
**A.** 12%

**Q.** For c1cc(CN2CCCNCCNCCCNCC2)ccc1CN1CCCNCCNCCCNCC1 [Plerixafor], which “T-cell accumulation among the cancer cells” value ([6]; CXCR4 antagonist alone) is on record?
**A.** induced rapid T-cell accumulation

**Q.** And the tumor growth ([6]; in combination with anti-PD-L1)?
**A.** synergistically decreased tumor growth

**Q.** What about the “anti-tumor activity, including decreased metastasis and increased overall survival” value [5] of the same molecule?
**A.** significant anti-tumor activity
